What all share (format): in vivo
For one experiment, the system named is Spodoptera litura. The experiment in a line: Biological Test Example 1: test against tobacco cutworm (Spodoptera litura) larvae, sweet potato leaf dip. Particulars: foliar, 168 h, active compound concentration 100 ppm, third instar larvae, after 7 days, read-out: insecticidal activity. How it is done: (§1) Unless not mentioned otherwise, the test solutions were prepared as follows:
(§2) Containing as solvent: Dimethylformamide, 3 parts by weight; and as emulsifier: Polyoxyethylene alkyl phenyl ether, 1 part by weight
(§3) To prepare the test solution, 1 part by weight of an active compound is mixed with the above-mentioned amount of solvent containing the above-mentioned amount of emulsifier, and the mixture is diluted with water to the desired concentration.
Test Against Tobacco Cutworm (Spodoptera litura) Larvae
Leaves of sweet potato were immersed in the test solution at the appropriate concentration, and the leaves were dried in air. The leaves were then placed in a petri dish having a diameter of 9 cm, and ten Spodoptera litura at third instar larvae were released therein. The petri dishes were placed in a temperature-controlled chamber at 25° C.
After 2 days and 4 days more sweet potato leaves were added. After 7 days, the number of dead larvae was counted and the insecticidal activity was calculated. An insecticidal activity of 100% means that all larvae were killed, whereas an insecticidal activity of 0% means that no larva was killed. In the current test, the results of two petri dishes for each treatment were averaged.

In another experiment the test system is Aulacophora femoralis. The experiment in a line: Biological Test Example 3: test against cucurbit leaf beetle (Aulacophora femoralis), cucumber leaf dip. Particulars: foliar, 168 h, active compound concentration 100 ppm, second instar larvae, after 7 days, read-out: insecticidal activity. The method, then:
as §1, §2, §3
Test Against Cucurbit Leaf Beetle (Aulacophora femoralis)
Leaves of cucumber were immersed in the test solution at the appropriate concentration, and the leaves were dried in air. The leaves were then put in a plastic cup containing sterilized black soil and five Aulacophora femoralis at second instar larvae were released in the cup. The cups were placed in a temperature-controlled chamber at 25° C. After 7 days, the number of dead larvae was counted, and the insecticidal activity was calculated. An insecticidal activity of 100% means that all larvae were killed, whereas an insecticidal activity of 0% means that no larva was killed.

Experiment [1] relates to organic phosphorus agent- and carbamate agent-resistant Myzus persicae. The experiment in a line: Biological Test Example 4: test against organic phosphorus agent- and carbamate agent-resistant green peach aphid (Myzus persicae), spray on eggplant. Particulars: active compound concentration 100 ppm; after 7 days. How it is done:
as §1, §2, §3
Test Against Organic Phosphorus Agent- and Carbamate Agent Resistant Green Peach Aphid (Myzus persicae)
50 to 100 head of organic phosphorous agent- and carbamate agent-resistant Myzus persicae were inoculated to leaves of eggplant at two-leaf stage, planted in a pot of 6 cm in diameter. After one day, test solution at the appropriate concentration was sprayed thereon in a sufficient amount using a spray gun. After the spraying, the plant pot was placed inside a greenhouse, and after 7 days, the insecticidal rate was calculated.
An insecticidal activity of 100% means that all aphids were killed, whereas an insecticidal activity of 0% means that no aphid was killed.

The test system of the next experiment is Tetranychus urticae. The experiment in a line: Biological Test Example 2: test against two-spotted spider mite (Tetranychus urticae), spray on kidney bean. Particulars: 168 h, active compound concentration 100 ppm, adult mites, after 7 days, read-out: acaricidal activity. The method, then:
as §1, §2, §3
Test Against Two-Spotted Spider Mite (Tetranvchus urticae)
50 to 100 adult mites of Tetranychus urticae were inoculated to leaves of kidney bean at two-leaf stage planted in a pot of 6 cm in diameter. After one day, test solution at the appropriate concentration was sprayed thereon in a sufficient amount using a spray gun. After the spraying, the plant pot was placed inside a greenhouse, and after 7 days, the acaricidal activity was calculated. An acaricidal activity of 100% means that all mites were killed, whereas an acaricidal activity of 0% means that no mite was killed.

Experiment [2] has as its system Spodoptera litura L2 stage. The experiment in a line: Spodoptera litura root soaking test (PRODLI). Particulars: 20 ppm, 4 dat. How it is done:
Spodoptera litura—Root Soaking Test (PRODLI)
Insect: Spodoptera litura L2 stage;
Material: Culture media bottles for hydroponics: Plastic (A-PET) cups for test, square type;
Plant: Broccoli 5 leaf stage (ca. 12 cm high), soil around the roots was washed off just before the test;
Solvent pre-mixture “Sorpol SD” for root soaking test;
Sorpol SD: Sorpol BDB:Dimethylformamide=3:3:140
Procedure: Test solutions are prepared in the bottles at the appropriate concentration. The test plant root is dipped into the test solution in the bottle and kept in a test room. After 3 days, ⅓ part of the leaves of the plants is cut and put into the A-PET cup.
Into each test cup five larvae L2 are released, the cup is covered with a lid and stored at 25° C. and at a relative humidity of 50-60% and under 16L8D lighting conditions.
After the specified period of time the mortality in % is determined and the rate of death is calculated.

The results in this text go back to patent US8158560B2, “Insecticidal arylpyrroline compounds” (Bayer CropScience AG, priority 2009, dated 2012).

As for `O=C(NC1CSC1)c1ccc(C2=NCC(c3cc(Cl)c(Cl)c(Cl)c3)(C(F)(F)F)C2)cc1Br` (centres unmarked) [Compound 1-4, 2-Bromo-N-(thietan-3-yl)-4-[3-(3,4,5-trichlorophenyl)-3-(trifluoromethyl)-3,4-dihydro-2H-pyrrol-5-yl]benzamide], the pest or weed control at 100 ppm in the experiment with Spodoptera litura and in the experiment on Aulacophora femoralis was 100% in each case.
As to `O=C(NC1CSC1)c1ccc(C2=NCC(c3cc(Cl)c(Cl)c(Cl)c3)(C(F)(F)F)C2)cc1C(F)(F)F` (centres unmarked) [Compound 1-7, N-(thietan-3-yl)-4-[3-(3,4,5-trichlorophenyl)-3-(trifluoromethyl)-3,4-dihydro-2H-pyrrol-5-yl]-2-(trifluoromethyl)benzamide], the pest or weed control at 100 ppm in the experiment on Spodoptera litura, in the experiment on Aulacophora femoralis and with Tetranychus urticae was 100% in each case. Besides, in experiment [1], the insecticidal activity is reported as 100%.
`O=C(NC1C[S+]([O-])C1)c1ccc(C2=NCC(c3cc(Cl)c(Cl)c(Cl)c3)(C(F)(F)F)C2)cc1C(F)(F)F` (centres unmarked) [Compound 1-8, N-(1-Oxidothietan-3-yl)-4-[3-(3,4,5-trichlorophenyl)-3-(trifluoromethyl)-3,4-dihydro-2H-pyrrol-5-yl]-2-(trifluoromethyl)benzamide]: the pest or weed control at 100 ppm with Spodoptera litura, in the experiment with Aulacophora femoralis and in the experiment on Tetranychus urticae was 100% each time.
In the case of `O=C(NC1CS(=O)(=O)C1)c1ccc(C2=NCC(c3cc(Cl)c(Cl)c(Cl)c3)(C(F)(F)F)C2)cc1C(F)(F)F` (centres unmarked) [Compound 1-9, N-(1,1-Dioxidothietan-3-yl)-4-[3-(3,4,5-trichlorophenyl)-3-(trifluoromethyl)-3,4-dihydro-2H-pyrrol-5-yl]-2-(trifluoromethyl)benzamide], the pest or weed control at 100 ppm with Spodoptera litura, in the experiment with Aulacophora femoralis and in the experiment with Tetranychus urticae was 100% each time. For the same molecule, the insecticidal activity in experiment [1] is reported as 100%.
As to `Cc1cc(C2=NCC(c3cc(Cl)c(Cl)c(Cl)c3)(C(F)(F)F)C2)ccc1C(=O)NC1CSC1` (centres unmarked) [Compound 1-10, 2-methyl-N-(thietan-3-yl)-4-[3-(3,4,5-trichlorophenyl)-3-(trifluoromethyl)-3,4-dihydro-2H-pyrrol-5-yl]benzamide], the pest or weed control at 100 ppm in the experiment on Spodoptera litura, with Aulacophora femoralis and with Tetranychus urticae was 100% in each case. Further, the insecticidal activity in experiment [1] was 100%.
Regarding `Cc1cc(C2=NCC(c3cc(Cl)c(Cl)c(Cl)c3)(C(F)(F)F)C2)ccc1C(=O)NC1C[S+]([O-])C1` (centres unmarked) [Compound 1-11, 2-Methyl-N-(1-oxidothietan-3-yl)-4-[3-(3,4,5-trichlorophenyl)-3-(trifluoromethyl)-3,4-dihydro-2H-pyrrol-5-yl]benzamide], the pest or weed control at 100 ppm in the experiment with Spodoptera litura, in the experiment with Aulacophora femoralis and in the experiment on Tetranychus urticae was 100% in each case.
Take `Cc1cc(C2=NCC(c3cc(Cl)c(Cl)c(Cl)c3)(C(F)(F)F)C2)ccc1C(=O)NC1CS(=O)(=O)C1` (centres unmarked) [Compound 1-12, N-(1,1-Dioxidothietan-3-yl)-2-methyl-4-[3-(3,4,5-trichlorophenyl)-3-(trifluoromethyl)-3,4-dihydro-2H-pyrrol-5-yl]benzamide]: the pest or weed control at 100 ppm in the experiment with Spodoptera litura, in the experiment on Aulacophora femoralis and in the experiment on Tetranychus urticae was 100% each time. Also, the insecticidal activity in experiment [1] came to 100%.
Regarding `O=C(NC1CSC1)c1ccc(C2=NCC(c3cc(C(F)(F)F)cc(C(F)(F)F)c3)(C(F)(F)F)C2)cc1C(F)(F)F` (centres unmarked) [Compound 1-16, 4-{3-[3,5-Bis(trifluoromethyl)phenyl}-3-(trifluoromethyl)-3,4-dihydro-2H-pyrrol-5-yl]-N-(thietan-3-yl)-2-(trifluoromethyl)benzamide], the pest or weed control at 100 ppm in the experiment on Spodoptera litura, in the experiment with Aulacophora femoralis and in the experiment with Tetranychus urticae was 100% each time. In experiment [1], this molecule gave an insecticidal activity of 100%.
As to `Cc1cc(C2=NCC(c3cc(C(F)(F)F)cc(C(F)(F)F)c3)(C(F)(F)F)C2)ccc1C(=O)NC1CSC1` (centres unmarked) [Compound 1-19, 4-{3-[3,5-Bis(trifluoromethyl)phenyl]-3-(trifluoromethyl)-3,4-dihydro-2H-pyrrol-5-yl}-2-methyl-N-(thietan-3-yl)benzamide], the pest or weed control at 100 ppm with Spodoptera litura, in the experiment with Aulacophora femoralis and with Tetranychus urticae was 100% in each case. Further, in experiment [1], the insecticidal activity was found to be 100%.
For the molecule `Cc1cc(C2=NCC(c3cc(C(F)(F)F)cc(C(F)(F)F)c3)(C(F)(F)F)C2)ccc1C(=O)NC1C[S+]([O-])C1` (centres unmarked) [Compound 1-20, 4-{3-[3,5-Bis(trifluoromethyl)phenyl]-3-(trifluoromethyl)-3,4-dihydro-2H-pyrrol-5-yl}-2-methyl-N-(1-oxidothietan-3-yl)benzamide], the pest or weed control at 100 ppm in the experiment with Spodoptera litura, with Aulacophora femoralis and in the experiment on Tetranychus urticae was 100% in each case.
Take `O=C(NC1CSC1)c1ccc(C2=NCC(c3cc(C(F)(F)F)cc(C(F)(F)F)c3)(C(F)(F)F)C2)cc1Br` (centres unmarked) [Compound 1-104, 4-{3-[3,5-Bis(trifluoromethyl)phenyl]-3-(trifluoromethyl)-3,4-dihydro-2H-pyrrol-5-yl}-2-bromo-N-(thietan-3-yl) benzamide]: the pest or weed control at 100 ppm with Spodoptera litura and in the experiment with Aulacophora femoralis was 100% in each case.
Regarding `O=C(CNC(=O)c1ccc(C2=NCC(c3cc(Cl)c(Cl)c(Cl)c3)(C(F)(F)F)C2)cc1C(F)(F)F)NC1CSC1` (centres unmarked) [Compound 3-7], the pest or weed control at 100 ppm in the experiment on Spodoptera litura, with Aulacophora femoralis and in the experiment with Tetranychus urticae was 100% in each case.
As for `O=C(CNC(=O)c1ccc(C2=NCC(c3cc(C(F)(F)F)cc(C(F)(F)F)c3)(C(F)(F)F)C2)cc1C(F)(F)F)NC1CSC1` (centres unmarked) [Compound 3-19, 4-{3-[3,5-Bis(trifluoromethyl)phenyl]-3-(trifluoromethyl)-3,4-dihydro-2H-pyrrol-5-yl}-N-[2-oxo-2-(thietan-3-ylamino)ethyl]-2-(trifluoromethyl)benzamide], the pest or weed control at 100 ppm with Spodoptera litura and with Aulacophora femoralis was 100% each time.
In the case of `Cc1cc(C2=NCC(c3cc(Cl)cc(Cl)c3)(C(F)(F)F)C2)ccc1C(=O)NC1CS(=O)(=O)C1` (centres unmarked) [Compound T-1], the “Efficacy/day(s) of treatment” value in experiment [2] was found to be 100%/4 dat.
For `Cc1cc(C2=NOC(c3cc(Cl)cc(Cl)c3)(C(F)(F)F)C2)ccc1C(=O)NC1CS(=O)(=O)C1` (centres unmarked) [ExNo A10 of WO 2009/080250], the “Efficacy/day(s) of treatment” value in experiment [2] was 0%/4 dat.
